From patent US20040258954A1, “Conjugated molecule and electroluminescent device thereof and electronic device having the electroluminescent device” (Semiconductor Energy Laboratory Co., Ltd., priority 2003, published 2004) come the findings set out here.

Data set [1] in a line: Cyclic voltammetry, oxidation potential. In kind it is physicochemical. The settings on record: acetonitrile, tetrabutyl ammonium perchlorate, platinum electrodes. Here is the method:
The cyclic voltammetry measurements were conducted by using acetonitrile as a solvent and tetrabutyl ammonium perchlorate as a supporting electrolyte. Each of a working electrode and a counter electrode was made from platinum. […] […] Therefore, in the compounds represented by the general formulas [Chem. 5] to [Chem. 8], it is preferable that the cyclic structures are formed by R^1 and R^2 and by R^3 and R^4, and this is supported by the result of this example.

The nature of data set [2]: Solubility to chloroform. In kind it is physicochemical. Here is the method:
In this embodiment, an effect of introducing a substituent other than hydrogen into R^5 and R^6 of the compounds represented by the general formulas [Chem. 5] to [Chem. 8] will be described. […] In contrast, in the case where R^5 and R^6 are trimethylsilyl groups, the solubility to chloroform at 25° C. is 15.4 wt. %. Thus, it is possible to considerably improve the solubility by introducing the substituent into R^5 and R^6.

On to `CCCCCCOc1csc(-c2ccc(-c3scc(OCCCCCC)c3OCCCCCC)cc2)c1OCCCCCC` [Chem. 11, 1,4-bis(3,4-dihexyloxy-2-thienyl)benzene], for which, in data set [1], the oxidation potential was determined as 1.68 V.

For `c1cc(-c2scc3c2OCCO3)ccc1-c1scc2c1OCCO2` [Chem. 9, 1,4-di-(3,4-ethylenedioxy-2-thienyl)benzene], the solubility to chloroform result in data set [2] is given as “less than 1 wt. %”. Besides, in data set [1], the oxidation potential amounted to 1.20 V.
